Measured values from publication PMC9071444 (Nucleic Acids Research, 2022).
“Also recorded” adds a separate entry of the source. Where two headings read alike, the source gives them in different places.

What was measured:
[1] = test system: TBEV-5; type: binding, tick-borne encephalitis virus
[2] = test system: PS cells
[3] = test system: TBEV-5; type: binding, tick-borne encephalitis virus; remark: listed apart in the source
[4] = test system: Japanese encephalitis virus RdRp; type: biochemical
[5] = test system: TBEV-5; type: binding, tick-borne encephalitis virus; remark: listed apart in the source
[6] = test system: TBEV-5; type: binding, tick-borne encephalitis virus; remark: listed apart in the source
[7] = test system: RNA G4 derived from the Nipah virus and ZIKV genomes; conditions: cited from earlier work
[8] = test system: SuperScript IV reverse transcriptase; type: biochemical
[9] = test system: TBEV strain Neudoerfl
[10] = test system: TBEV strain Hypr
[11] = test system: TBEV strain Neudoerfl; assay: microbe, parasite or virus in culture; conditions: Tick-borne encephalitis virus, 48 h
[12] = test system: TBEV strains Neudoerfl and Hypr; assay: microbe, parasite or virus in culture; type: cell-based, tick-borne encephalitis virus; conditions: for EC50: read-out: EC50
[13] = in vitro; conditions: pig
[14] = test system: TBEV strain Hypr; assay: microbe, parasite or virus in culture; conditions: Tick-borne encephalitis virus, 48 h
[15] = test system: ZIKV virus; conditions: 100 μM; cited from earlier work
[16] = test system: TBEV strain Hypr; type: cell-based, tick-borne encephalitis virus
[17] = test system: SuperScript IV reverse transcriptase; type: biochemical; remark: listed apart in the source
[18] = test system: TBEV strain Hypr; type: cell-based, tick-borne encephalitis virus; remark: listed apart in the source
[19] = test system: TBEV strain Neudoerfl; type: cell-based, tick-borne encephalitis virus
[20] = test system: Viral genome RNA from the TBEV strain Hypr; type: cell-based, tick-borne encephalitis virus
[21] = test system: TBEV strains Neudoerfl and Hypr; type: cell-based, tick-borne encephalitis virus
[22] = test system: ZIKV; conditions: cited from earlier work
[23] = test system: ZIKV NS2B-NS3 protease; conditions: cited from earlier work
[24] = biological target: Japanese encephalitis virus RdRp (Japanese encephalitis virus, UniProt P32886); type: biochemical
Sequence of Japanese encephalitis virus RdRp (Japanese encephalitis virus, UniProt P32886) (P32886 2528-3432 limits assumed): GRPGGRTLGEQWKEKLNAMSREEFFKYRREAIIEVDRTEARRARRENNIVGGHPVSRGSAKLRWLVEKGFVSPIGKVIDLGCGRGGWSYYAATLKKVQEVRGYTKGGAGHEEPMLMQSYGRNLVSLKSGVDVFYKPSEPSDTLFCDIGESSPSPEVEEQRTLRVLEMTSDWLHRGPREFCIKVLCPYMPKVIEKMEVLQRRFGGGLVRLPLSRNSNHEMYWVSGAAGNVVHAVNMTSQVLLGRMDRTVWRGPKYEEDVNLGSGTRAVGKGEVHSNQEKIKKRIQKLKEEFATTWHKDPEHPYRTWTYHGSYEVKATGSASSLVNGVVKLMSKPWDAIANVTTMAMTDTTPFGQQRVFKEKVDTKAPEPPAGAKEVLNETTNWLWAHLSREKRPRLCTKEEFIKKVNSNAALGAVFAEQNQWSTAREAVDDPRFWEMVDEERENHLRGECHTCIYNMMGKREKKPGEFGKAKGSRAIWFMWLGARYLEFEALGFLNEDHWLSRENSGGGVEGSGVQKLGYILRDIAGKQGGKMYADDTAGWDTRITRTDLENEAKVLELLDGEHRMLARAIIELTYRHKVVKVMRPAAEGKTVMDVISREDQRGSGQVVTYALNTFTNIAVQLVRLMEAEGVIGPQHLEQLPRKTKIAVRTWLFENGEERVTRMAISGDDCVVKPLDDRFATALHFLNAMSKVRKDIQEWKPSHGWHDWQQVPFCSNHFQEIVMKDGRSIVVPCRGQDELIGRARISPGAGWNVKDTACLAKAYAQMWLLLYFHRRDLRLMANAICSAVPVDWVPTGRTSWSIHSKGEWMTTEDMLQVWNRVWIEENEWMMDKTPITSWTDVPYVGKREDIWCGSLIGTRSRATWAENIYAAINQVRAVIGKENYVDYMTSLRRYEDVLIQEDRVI

[25] = test system: HCV RdRp; conditions: cited from earlier work
[26] = Tick-borne encephalitis virus, 48 h

Compound: 5,10,15,20-tetrakis-(N-methyl-4-pyridyl)porphine [TMPyP4]
- Binding of TBEV-5 (concentration for 50% TBEV-5 saturation) [1]: best binder
- G4 specificity of binding (titration curves with TBEV-5 versus TBEV-5mut) [1]: bind non-specifically
- CC50 [2]: > 50 µM
- Change of CD at 263 nm of TBEV-5 [3]: most pronounced
- RdRp activity relative to no-ligand control [4]: < 10%
- Displacement of the probe (TO or ThT) [5]: ~100%
- Increase in Tm of TBEV-5 G4 [6]: strong distortion of melting curves
- Interaction with RNA G4 [7]: specifically interact
- Full product of reverse transcription relative to no-ligand control [8]: inhibits reverse transcriptase

Compound: O=C1c2cccc(O)c2C(=O)c2c(O)cc(CO)cc21 [Aloe emodin, aloe-emodin]
- SI (CC50/EC50) [9]: >1
- SI (CC50/EC50) [10]: >1
- EC50 [11]: > 50 µM
- Virus inhibition in initial screening [12]: no virus inhibition effects
- Displacement of ThT [5]: did not significantly displace
- Increase in Tm of TBEV-5 G4 [6]: strong distortion of melting curves
- CC50 [13]: > 50 µM
- EC50 [14]: > 50 µM

Compound: CN(C)c1ccc(Nc2c3ccc(NC(=O)CCN4CCCC4)cc3nc3cc(NC(=O)CCN4CCCC4)ccc23)cc1 [BRACO-19]
- EC50 [9]: > 50 µM
- SI (CC50/EC50) [9]: >1
- EC50 [10]: > 50 µM
- SI (CC50/EC50) [10]: >1
- CC50 [2]: > 50 µM
- Effect on ZIKV virus titers [15]: decrease ZIKV virus titers
- Virus inhibition in initial screening [12]: no virus inhibition effects
- Increase in Tm of TBEV-5 G4 [6]: strong distortion of melting curves
- Interaction with RNA G4 [7]: specifically interact

Compound: COc1ccc2cc3[n+](cc2c1OC)CCc1cc2c(cc1-3)OCO2 [Berberin, berberine]
- G4 specificity of binding (titration curves with TBEV-5 versus TBEV-5mut) [1]: specifically bind G4
- EC50 [11]: 1.26 µM
- Reduction of numbers of viral RNA copies [16]: about 40%
- Course of anti-TBEV activity over time [12]: stable over time
- EC50 [12, 26]: 1.2 to 2.9 µM
- Displacement of TO [5]: did not displace
- Displacement of ThT [5]: around 50%
- Increase in Tm of TBEV-5 G4 [6]: up to 3.5 °C
- Inhibition of RT [17]: did not inhibit RT
- CC50 [13]: > 50 µM
- Phase of the viral replication cycle in which the antiviral action takes effect [18]: post-entry/fusion phase
- EC50 [14]: 1.57 µM
- Reduction of numbers of viral RNA copies [19]: ~25%
- Suppression of infectious viral particle formation [20]: partial
- Full product of reverse transcription relative to no-ligand control [8]: does not inhibit RT

Compound: CN(C)c1ccc(C(=C2C=CC(=[N+](C)C)C=C2)c2ccc(N(C)C)cc2)cc1 [CV, crystal violet]
- CC50 ([2]; pig): < 1.6 µM

Compound: Cc1cnc(CNC(=O)c2c(=O)c3ccc(N4CCCN(C)CC4)nc3n3c2sc2ccccc23)cn1 [CX5461]
- Antiviral effect at the lowest non-cytotoxic concentration [9]: ^eNo antiviral effect was observed at the lowest non-cytotoxic concentration of 5 μM.
- Antiviral effect at the lowest non-cytotoxic concentration [10]: ^eNo antiviral effect was observed at the lowest non-cytotoxic concentration of 5 μM.
- CC50 ([2]; pig): 14.1 µM

Compound: CCC1=C(C)c2cc3[nH]c(cc4nc(cc5c(CCC(=O)O)c(C)c(cc1n2)n5C)C(CCC(=O)O)=C4C)c(C)c3CC [NMM, N-Methylmesoporphyrin IX]
- G4 specificity of binding (titration curves with TBEV-5 versus TBEV-5mut) [1]: specifically bind G4
- EC50 [9]: 0.01 µM
- SI (CC50/EC50) [9]: >5000
- EC50 [10]: 0.02 µM
- SI (CC50/EC50) [10]: >2 500
- CC50 [2]: > 50 µM
- Cell morphology and monolayer cohesion [2]: observable changes in cell morphology and in mechanical monolayer cohesion
- Concentration that completely suppressed TBEV replication [12]: 1.6 µM
- Course of anti-TBEV activity over time [12]: stable over time
- Increase in Tm of TBEV-5 G4 [6]: up to 3.5 °C
- Inhibition of RT [17]: did not inhibit RT
- Phase of the viral replication cycle in which the antiviral action takes effect [18]: prior to the entry/fusion steps
- Viable viral particle formation [20]: no viable viral particle formation
- Full product of reverse transcription relative to no-ligand control [8]: inhibits reverse transcriptase
- Effect on viral RNA copies [21]: complete inhibition of RNA synthesis

Compound: NCCOc1cc(C(=O)Nc2cc(OCCN)c3ccccc3n2)nc(C(=O)Nc2cc(OCCN)c3ccccc3n2)c1 [PDS, Pyridostatin]
- EC50 [11]: 2.94 µM
- Phase of ZIKV cycle affected [22]: replication period rather than entry
- Effect on ZIKV NS2B-NS3 protease [23]: reduces its catalytic activity
- RdRp activity relative to no-ligand control [4]: < 10%
- Course of anti-TBEV activity over time [12]: stable over time
- EC50 [12, 26]: 1.2 to 2.9 µM
- Inhibition of RT [17]: strong inhibitory effect
- CC50 [13]: > 50 µM
- Phase of the viral replication cycle in which the antiviral action takes effect [18]: post-entry/fusion phase
- EC50 [14]: 1.29 µM
- Suppression of infectious viral particle formation [20]: partial; also recorded: complete

Compound: C[n+]1cc(NC(=O)c2ccc3ccc4ccc(C(=O)Nc5cc6ccccc6[n+](C)c5)nc4c3n2)cc2ccccc21 [PhenDC3]
- EC50 [9]: 5.77 µM
- SI (CC50/EC50) [9]: >8.66
- EC50 [10]: 5.68 µM
- SI (CC50/EC50) [10]: >8.08
- CC50 [2]: > 50 µM
- Change of CD at 263 nm of TBEV-5 [3]: most pronounced
- RdRp activity relative to no-ligand control [4]: < 10%
- Inhibition of RdRp activity [24]: almost completely inhibits
- Course of anti-TBEV activity over time [12]: gradually disappeared or dropped significantly
- EC50 [12]: ~5 µM
- Effect on HCV RdRp [25]: no significant effect
- Displacement of the probe (TO or ThT) [5]: ~100%
- Increase in Tm of TBEV-5 G4 [6]: strong distortion of melting curves
- Inhibition of RT [17]: strong inhibitory effect
- Phase of the viral replication cycle in which the antiviral action takes effect [18]: post-entry/fusion phase

Compound: CN1C(=Cc2cc[n+](C)c3ccccc23)Sc2ccccc21 [TO, thiazole orange]
- G4 specificity of binding (titration curves with TBEV-5 versus TBEV-5mut) [1]: bind non-specifically
- CC50 [2]: 1.8 µM
- Change of CD at 263 nm of TBEV-5 [3]: most pronounced
- Displacement of ThT [5]: almost entirely displaces
- Increase in Tm of TBEV-5 G4 [6]: strong distortion of melting curves

Compound: Cc1ccc2c(c1)sc(-c1ccc(N(C)C)cc1)[n+]2C [ThT, thioflavin T]
- G4 specificity of binding (titration curves with TBEV-5 versus TBEV-5mut) [1]: specifically bind G4
- Antiviral effect at the lowest non-cytotoxic concentration [9]: ^eNo antiviral effect was observed at the lowest non-cytotoxic concentration of 5 μM.
- Antiviral effect at the lowest non-cytotoxic concentration [10]: ^eNo antiviral effect was observed at the lowest non-cytotoxic concentration of 5 μM.
- CC50 ([2]; pig): 10.6 µM
- Displacement of TO [5]: does not displace
- Increase in Tm of TBEV-5 G4 [6]: up to 3.5 °C

Compound: NCCOc1cc(NC(=O)c2cc(OCc3cn(CCC(=O)O)nn3)cc(C(=O)Nc3cc(OCCN)c4ccccc4n3)n2)nc2ccccc12 [cPDS, Carboxy pyridostatin]
- EC50 [9]: 4.45 µM
- SI (CC50/EC50) [9]: >11.23
- EC50 [10]: 5.52 µM
- SI (CC50/EC50) [10]: >9.05
- CC50 [2]: > 50 µM
- RdRp activity relative to no-ligand control [4]: < 10%
- Course of anti-TBEV activity over time [12]: gradually disappeared or dropped significantly
- EC50 [12]: ~5 µM
- Increase in Tm of TBEV-5 G4 [6]: strong distortion of melting curves
- Phase of the viral replication cycle in which the antiviral action takes effect [18]: post-entry/fusion phase
